The text below walks through data of patent US20250275969A1, “METHODS OF TREATING MALIGNANT PERIPHERAL NERVE SHEATH TUMOR (MPNST) USING LSD1 INHIBITORS” (ORYZON GENOMICS, S.A., priority 2022, published 2025).

Holding throughout (assay type): cell-based
In one series the test system is sNF96.2. As to the kind of experiment: MPNST viability assay (6 days, MTT or AlamarBlue). The following applies: for EC50: cell viability, sNF96.2, 6 days of treatment. On the procedure: (§1) Mycoplasma-free MPNST cell lines (see Table 1) were seeded in 50 μl/well of complete medium (DMEM high glucose supplemented with 1× GlutaMAX™, 1× sodium pyruvate and 10% fetal bovine serum (FBS), Thermo Fisher) in 96-well plates at the optimal cell density to ensure log-phase growth throughout the duration of the experiment (see Table 1). The day after seeding, 50 μl of medium containing 9 serial dilutions (1:3) of 2×-concentrated iadademstat (LSD1 inhibitor; used as the dihydrochloride salt) were added to the cells to obtain 100 μl of cells treated with 1×-concentrated compound at each dilution. Etoposide (topoisomerase II/DNA synthesis inhibitor) was also included as a positive control of the assay. Additionally, from the MPNST cell line panel, two cell lines (sNF96.2 and sNF02.2) were selected to evaluate the effect of other LSD1 inhibitors, i.e. bomedemstat (bis-tosylate salt) and pulrodemstat (besylate salt). Each experimental condition was tested in technical triplicates, including medium-only wells and vehicle-treated controls for background correction and normalization, respectively. After treatment, cells were incubated at 37° C. in a humidified and controlled 5% CO2 atmosphere for 72 h. At this time-point, compound and medium refreshment was performed by adding 50 μl of medium supplemented with 1×-concentrated compound at each corresponding dilution. Cells were incubated for additional 72 h (for a total of 6 days) prior to evaluating cell viability using either the MTT assay (Sigma-Aldrich) or AlamarBlue™ Cell viability reagent (Life Technologies), following manufacturer's instructions. Background was calculated as the mean of the values of medium-only controls and subtracted from each data point. The average of background-corrected technical triplicates was calculated and normalized by the mean of vehicle-treated controls (corresponding to 100% of viability). Data were analyzed using GraphPad PRISM® version 9.0.1 (GraphPad Software, Inc., La Jolla, CA/USA) to calculate the best-fitting curves and the EC50 values (corresponding to the concentration of compound at which a half (50%) maximal effect is obtained; lower EC50 values thus indicate greater potency).
(§2) LSD1 inhibitors such as iadademstat have been reported to exert their therapeutic effect by inducing cancer cell differentiation and inhibiting cancer cell proliferation rather than by killing cancer cells (Sacilotto N et al., ACS Pharmacol Transl Sci, 2021, 4(6):1818-34, doi: 10.1021/acsptsci.1c00223). In line with this, a cancer cell viability reduction of more than 30% reflects a potent therapeutic effect of the corresponding LSD1 inhibitor. In the present experiment, the response obtained after LSD1 inhibitor treatment was therefore classified into the following three groups: (1) strong response (viability reduction >30%); (2) medium response (viability reduction >15% and <30%); (3) low response (viability reduction <15%). Table 3 summarizes the EC50 values obtained for etoposide (the positive control of the assay) and iadademstat together with the classification according to viability reduction after LSD1 inhibitor treatment.
In general terms: Alamar Blue is a resazurin reagent that responds to reducing activity.

For a further series, the system named is sNF02.2. As to the kind of experiment: MPNST viability assay (6 days, MTT or AlamarBlue). As to conditions: for EC50: cell viability, sNF02.2, 6 days of treatment. On the procedure:
as §1, §2

The test system of series [1] is panel of 12 MPNST cell lines. As to the kind of experiment: MPNST viability assay, summary over the cell line panel. How it is done: as §1
A panel of 12 MPNST cell lines was used to evaluate the effects of the LSD1 inhibitor iadademstat on MPNST cell viability after 6 days of treatment, and etoposide was used as a positive control of the assay. In order for the in vitro experiments to reliably mirror the situation in the clinical setting, where MPNST patients feature a great genomic heterogeneity, a panel of different types of MPNST cell lines was used. The panel comprises both MPNST immortalized lines and MPNST cell lines derived from patients. […]

For a further series, the system named is MPNST-NF1-08. As to the kind of experiment: MPNST viability assay (6 days, MTT or AlamarBlue). How it is done: as §1, §2
The next series has as its system HS-PSS. As to the kind of experiment: MPNST viability assay (6 days, MTT or AlamarBlue). As to conditions: for EC50: cell viability, 6 days of treatment. How it is done:
as §1, §2

In a further series the test system is 90-8TL. As to the kind of experiment: MPNST viability assay (6 days, MTT or AlamarBlue). As to conditions: for EC50: cell viability, 6 days of treatment. On the procedure:
as §1, §2

The subject of the next series is MPNST-SP-01. As to the kind of experiment: MPNST viability assay (6 days, MTT or AlamarBlue). How it is done:
as §1, §2

The subject of a further series is NMS-2. As to the kind of experiment: MPNST viability assay (6 days, MTT or AlamarBlue). On the procedure: as §1, §2
For another series, the system named is MPNST-SP-10. As to the kind of experiment: MPNST viability assay (6 days, MTT or AlamarBlue). The following applies: for EC50: cell viability, MPNST-SP-10, 6 days of treatment. How it is done: as §1, §2
For the next series, the system named is ST88-14. As to the kind of experiment: MPNST viability assay (6 days, MTT or AlamarBlue). As to conditions: for EC50: cell viability, ST88-14, 6 days of treatment. On the procedure: as §1, §2
Another series deals with MPNST-NF1-09. As to the kind of experiment: MPNST viability assay (6 days, MTT or AlamarBlue). On the procedure:
as §1, §2

The next series has as its system S462. As to the kind of experiment: MPNST viability assay (6 days, MTT or AlamarBlue). The following applies: for EC50: cell viability, S462, 6 days of treatment. On the procedure:
as §1, §2

Another series has as its system MPNST-NF1-18b. As to the kind of experiment: MPNST viability assay (6 days, MTT or AlamarBlue). The following applies: for EC50: cell viability, 6 days of treatment. How it is done: as §1, §2
Where [2] appears, read: viability reduction class, 6 days.

What is called EC50 is the concentration needed to bring the measured effect to its halfway point. High values mean a less potent agent, low ones a more potent agent. Turning to `CN1CCN(C(=O)[C@H](CCCN[C@@H]2C[C@H]2c2ccc(F)cc2)NC(=O)c2ccc(-n3ccnn3)cc2)CC1` [Bomedemstat, N-[(2S)-5-{[(1R,2S)-2-(4-fluorophenyl)cyclopropyl]amino}-1-(4-methylpiperazin-1-yl)-1-oxopentan-2-yl]-4-(1H-1,2,3-triazol-1-yl)benzamide], the EC50 with sNF96.2 (144 h) came out at 1.28 nM; in the series with sNF02.2 (144 h), 0.094 nM.

For the compound `COc1ccc(-c2c(-c3ccc(C#N)c(F)c3)nc(N3CCC(N)CC3)n(C)c2=O)cc1F` [Pulrodemstat, 4-[2-(4-aminopiperidin-1-yl)-5-(3-fluoro-4-methoxyphenyl)-1-methyl-6-oxo-1,6-dihydropyrimidin-4-yl]-2-fluorobenzonitrile], the EC50 in the series with sNF96.2 (144 h) turned out to be 0.261 nM; in the series with sNF02.2 (144 h) it was 0.166 nM.

For `N[C@H]1CC[C@H](N[C@@H]2C[C@H]2c2ccccc2)CC1` [iadademstat, (trans)-N1-((1R,2S)-2-phenylcyclopropyl)cyclohexane-1,4-diamine], the “cell lines showing a strong viability reduction” value in series [1] (3 out of 12 cell lines, 6-day treatment) is listed as 25%. The “cell lines showing a medium viability reduction” value in series [1] (5 out of 12 cell lines, 6-day treatment) turned out to be 41.67%. The “EC50 values (in words)” value in series [1] (medium- and strong-responding cell lines) was “subnanomolar”. For the same compound, the “medium- and strong-responding cell lines, total” value in series [1] (of 12 cell lines, 6-day treatment) turned out to be 66.67%. For the same compound, the EC50 in the series on sNF96.2 (144 h) is 0.042 nM; with HS-PSS (144 h), 0.046 nM; with 90-8TL (144 h), 0.026 nM; in the series with MPNST-SP-10 (144 h) it was 0.033 nM; in the series on ST88-14 (144 h) it was 0.039 nM; in the series on S462 (144 h) it was 0.087 nM. Moreover, the EC50 in the series on MPNST-NF1-18b (144 h) was 0.025 nM; in the series on sNF02.2 (144 h) it was 0.017 nM. Also, the “potency among the LSD1 inhibitors tested (in words)” value in the series on sNF96.2 (sNF96.2, compared with bomedemstat and pulrodemstat) was “highest potency”; with sNF02.2 (sNF02.2, compared with bomedemstat and pulrodemstat) it was “highest potency”. Besides, the “Response to iadademstat (viability assay)” value with sNF96.2 (viability reduction class, sNF96.2, 6 days) was “Strong response (strong response (viability reduction >30%))”; in the series with MPNST-NF1-08 (viability reduction class, MPNST-NF1-08, 6 days) it was “Low response (low response (viability reduction <15%))”; with HS-PSS (setting [2]), “Medium response (medium response (viability reduction >15% and <30%))”; in the series with 90-8TL (setting [2]), “Medium response (medium response (viability reduction >15% and <30%))”; in the series on MPNST-SP-01 (viability reduction class, MPNST-SP-01, 6 days), “Low response (low response (viability reduction <15%))”; in the series on NMS-2 (viability reduction class, NMS-2, 6 days), “Low response (low response (viability reduction <15%))”. Moreover, the “Response to iadademstat (viability assay)” value in the series with MPNST-SP-10 (viability reduction class, MPNST-SP-10, 6 days) was “Medium response (medium response (viability reduction >15% and <30%))”; with ST88-14 (viability reduction class, ST88-14, 6 days) it was “Medium response (medium response (viability reduction >15% and <30%))”; with MPNST-NF1-09 (viability reduction class, MPNST-NF1-09, 6 days), “Low response (low response (viability reduction <15%))”; with S462 (viability reduction class, S462, 6 days), “Strong response (strong response (viability reduction >30%))”; in the series on MPNST-NF1-18b (setting [2]), “Strong response (strong response (viability reduction >30%))”; in the series with sNF02.2 (viability reduction class, sNF02.2, 6 days), “Medium response (medium response (viability reduction >15% and <30%))”.

`COc1cc([C@@H]2c3cc4c(cc3[C@@H](O[C@@H]3O[C@@H]5CO[C@@H](C)O[C@H]5[C@H](O)[C@H]3O)[C@H]3COC(=O)[C@H]23)OCO4)cc(OC)c1O` [etoposide]: the EC50 with sNF96.2 was 108 nM; in the series on MPNST-NF1-08 (cell viability, MPNST-NF1-08, 6 days of treatment), 740 nM; in the series on HS-PSS, 205 nM; with 90-8TL, 164 nM; in the series on MPNST-SP-01 (cell viability, MPNST-SP-01, 6 days of treatment), 1030 nM; in the series with NMS-2 (cell viability, NMS-2, 6 days of treatment), 154 nM. The EC50 worked out at 269 nM with MPNST-SP-10; 788 nM with ST88-14; 737 nM in the series with MPNST-NF1-09 (cell viability, MPNST-NF1-09, 6 days of treatment); 376 nM in the series on S462; 394 nM in the series with MPNST-NF1-18b; 144 nM with sNF02.2.
